Laboratory results taken from patent US5034317A, “Enzyme controlled release system and organic conjugate reactant” (priority 1987, dated 1991).

Experiments:
Assay type in all cases: biochemical
[1] = biological target: Aspergillus oryzae β-galactosidase (Aspergillus oryzae, UniProt Q2UCU3); assay: Enzymatic hydrolysis of conjugate reactants by Aspergillus oryzae β-galactosidase (release of displaceable ligand)
From the text: (§1) A major advantage provided by the organic conjugate compositions comprising the present invention is the selective ability to discriminate not only between different classes of enzymes, but also to distinguish the same enzyme obtained from different sources. […] Each of the individual, separately derived, beta-galactosidases were commercially obtained and empirically evaluated using the test protocol described previously in Example 6.

[2] = biological target: T1, beef liver β-galactosidase (Bos taurus, UniProt Q58D55); assay: Enzymatic hydrolysis of conjugate reactants by beef liver β-galactosidase; details: beef liver β-galactosidase 0.66 units; for Measured Rate of Reaction: 25° C., 10^-3 M
T1 sequence (Q58D55 28-653): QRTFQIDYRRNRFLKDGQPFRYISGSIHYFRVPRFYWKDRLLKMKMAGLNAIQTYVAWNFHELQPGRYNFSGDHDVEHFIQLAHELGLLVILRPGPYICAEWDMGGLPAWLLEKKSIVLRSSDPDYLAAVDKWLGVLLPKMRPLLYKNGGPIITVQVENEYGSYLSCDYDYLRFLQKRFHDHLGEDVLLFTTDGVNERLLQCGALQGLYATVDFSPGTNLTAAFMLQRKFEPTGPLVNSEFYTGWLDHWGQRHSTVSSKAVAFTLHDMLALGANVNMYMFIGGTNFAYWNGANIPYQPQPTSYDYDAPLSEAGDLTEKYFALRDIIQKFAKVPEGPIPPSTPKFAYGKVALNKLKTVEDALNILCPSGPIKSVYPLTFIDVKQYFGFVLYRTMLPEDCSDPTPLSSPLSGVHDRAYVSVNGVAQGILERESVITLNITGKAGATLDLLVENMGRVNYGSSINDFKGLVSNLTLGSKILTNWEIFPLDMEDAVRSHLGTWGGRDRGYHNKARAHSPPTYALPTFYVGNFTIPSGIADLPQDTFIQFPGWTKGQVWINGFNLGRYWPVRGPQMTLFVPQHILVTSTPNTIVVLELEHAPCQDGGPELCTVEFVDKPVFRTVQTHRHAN
From the text: as §1

E. coli β-galactosidase = E. coli β-galactosidase (Escherichia coli, UniProt P00722); assay: Enzymatic hydrolysis of conjugate reactants by E. coli β-galactosidase; details: 25° C., 10^-3 M, E. coli β-galactosidase 7.5 units, pH 7.0 (Table 6)
From the text: as §1

[3] = biological target: Aspergillus oryzae Beta galactosidase (Aspergillus oryzae, UniProt Q2UCU3); assay: Spectrofluorimetric detection of 1.0×10^-12 M enzyme with conjugate substrate
Procedure: Experimental conditions: Ten microliters of 1.0×10^-10 M Aspergillus oryzae Beta galactosidase (Cal Biochem) in 100 mM citrate phosphate, pH 5, with 0.05% w/v gelatin (Buffer A) was added to one milliliter of 1.6 mM compound 15 in Buffer A, yielding a final enzyme concentration of 1.0×10^-12 M. One half milliliter of this reaction mixture was monitored in a spectrofluorimeter in a two millimeter cuvette with instrument settings of 540 nm excitation, 580 emission and 5 nm slit widths. The signal was measured on a chart recorder at a speed of one centimeter per minute and at a sensitivity setting that gave fifteen percent deflection with 1.7×10^-7 M Sulforhodamine 101 in ethanol.

[4] = reactant 1.7 × 10^-5 M, temperature 36.5, 0.85 units Aspergillus oryzae β-galactosidase, pH 7.0 (Table 5)

Aspergillus oryzae β-galactosidase, sequence (Q2UCU3 19-1005): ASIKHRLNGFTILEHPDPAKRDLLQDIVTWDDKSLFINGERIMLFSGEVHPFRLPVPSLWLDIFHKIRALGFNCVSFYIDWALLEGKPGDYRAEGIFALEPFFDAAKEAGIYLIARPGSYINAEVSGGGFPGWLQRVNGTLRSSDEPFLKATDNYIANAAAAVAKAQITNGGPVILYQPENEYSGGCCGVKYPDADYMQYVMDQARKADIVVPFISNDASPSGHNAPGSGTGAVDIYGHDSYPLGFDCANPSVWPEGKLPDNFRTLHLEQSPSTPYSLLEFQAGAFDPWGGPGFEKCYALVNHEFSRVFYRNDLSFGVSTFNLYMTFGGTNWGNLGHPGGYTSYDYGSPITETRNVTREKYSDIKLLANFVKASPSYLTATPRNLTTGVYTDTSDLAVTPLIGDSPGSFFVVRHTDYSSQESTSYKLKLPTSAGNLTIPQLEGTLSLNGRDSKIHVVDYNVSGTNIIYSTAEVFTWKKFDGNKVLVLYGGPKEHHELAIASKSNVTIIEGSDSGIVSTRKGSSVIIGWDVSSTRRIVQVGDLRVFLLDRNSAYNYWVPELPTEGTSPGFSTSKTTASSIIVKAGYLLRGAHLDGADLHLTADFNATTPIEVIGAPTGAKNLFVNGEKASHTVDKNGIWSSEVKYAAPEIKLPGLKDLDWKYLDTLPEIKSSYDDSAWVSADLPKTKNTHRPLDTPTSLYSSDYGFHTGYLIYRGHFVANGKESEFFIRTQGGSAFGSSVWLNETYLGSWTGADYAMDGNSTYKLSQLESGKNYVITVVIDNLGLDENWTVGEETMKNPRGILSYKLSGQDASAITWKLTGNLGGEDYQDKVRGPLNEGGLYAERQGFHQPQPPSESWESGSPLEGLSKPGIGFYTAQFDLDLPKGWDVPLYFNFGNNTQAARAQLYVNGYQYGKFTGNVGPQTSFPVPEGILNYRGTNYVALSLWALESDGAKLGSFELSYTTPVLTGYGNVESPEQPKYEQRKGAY
Aspergillus oryzae Beta galactosidase, sequence (Q2UCU3 19-1005): as above
E. coli β-galactosidase, sequence (P00722 whole entry): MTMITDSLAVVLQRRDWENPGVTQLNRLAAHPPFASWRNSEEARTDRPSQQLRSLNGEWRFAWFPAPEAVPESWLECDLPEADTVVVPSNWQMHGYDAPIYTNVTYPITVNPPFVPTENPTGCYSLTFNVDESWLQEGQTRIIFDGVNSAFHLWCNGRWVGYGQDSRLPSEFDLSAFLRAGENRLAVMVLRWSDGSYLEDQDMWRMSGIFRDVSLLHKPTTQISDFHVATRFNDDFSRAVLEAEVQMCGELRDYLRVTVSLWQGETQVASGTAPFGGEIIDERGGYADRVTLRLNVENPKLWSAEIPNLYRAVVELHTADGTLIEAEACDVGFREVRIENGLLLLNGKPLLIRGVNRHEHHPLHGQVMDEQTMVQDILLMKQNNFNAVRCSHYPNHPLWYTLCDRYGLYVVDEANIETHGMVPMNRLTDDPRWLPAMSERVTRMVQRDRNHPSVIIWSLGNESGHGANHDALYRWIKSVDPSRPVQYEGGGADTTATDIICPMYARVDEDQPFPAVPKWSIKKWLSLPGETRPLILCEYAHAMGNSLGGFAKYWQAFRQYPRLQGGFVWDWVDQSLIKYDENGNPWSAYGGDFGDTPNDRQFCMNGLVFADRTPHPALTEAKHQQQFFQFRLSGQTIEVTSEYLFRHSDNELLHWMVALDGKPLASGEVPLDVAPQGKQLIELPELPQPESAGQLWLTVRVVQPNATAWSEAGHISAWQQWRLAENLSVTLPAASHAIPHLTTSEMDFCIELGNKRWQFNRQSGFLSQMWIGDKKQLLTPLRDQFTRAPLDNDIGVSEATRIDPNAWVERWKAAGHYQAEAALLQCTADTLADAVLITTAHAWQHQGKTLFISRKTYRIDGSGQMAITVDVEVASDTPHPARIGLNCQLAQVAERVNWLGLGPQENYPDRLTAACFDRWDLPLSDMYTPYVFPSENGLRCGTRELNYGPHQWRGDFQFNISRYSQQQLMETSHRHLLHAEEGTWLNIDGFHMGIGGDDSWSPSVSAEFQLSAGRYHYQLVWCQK

Row | SMILES | Measured Rate of Reaction ([1]; 36.5° C., 1.7 × 10^-5 M, Asp. ory. β-galactosidase 0.85 units, pH 7.0 (Table 6)) | Measured Rate of Reaction [1, 4] | Measured Rate of Reaction (in words: hydrolysis after 4 days) ([2]; 36.5° C., 1.7 × 10^-5 M, pH 7.0, cell reads 'incomplete hydro-lysis after 4 days' (Table 6)) | Measured Rate of Reaction ([1]; 25° C., 10^-3 M, Asp. ory. β-galactosidase 0.5 units, pH 5.5 (Table 6)) | Measured Rate of Reaction ([1]; 25° C., 10^-3 M, Asp. ory. β-galactosidase 0.85 units, pH 7.0 (Table 6)) | Measured Rate of Reaction ([1]; reactant 10^-3 M, temperature 25, 0.5 units Aspergillus oryzae β-galactosidase, pH 5.5 (Table 5)) | Measured Rate of Reaction ([1]; reactant 10^-3 M, temperature 25, 0.85 units Aspergillus oryzae β-galactosidase, pH 7.0 (Table 5)) | Measured Rate of Reaction ([1]; reactant 10^-3 M, temperature 25, 1.0 units Aspergillus oryzae β-galactosidase, pH 5.5 (Table 5)) | Measured Rate of Reaction ([1]; reactant 10^-3 M, temperature 25, 4.2 units Aspergillus oryzae β-galactosidase, pH 7.0 (Table 5)) | Measured Rate of Reaction ([2]; pH 5.5 (Table 6)) | Measured Rate of Reaction ([2]; pH 7.0 (Table 6)) | Measured Rate of Reaction (E. coli β-galactosidase) | signal generated by the substrate solution alone (no enzyme) ([3]; 1.6 mM substrate in Buffer A pH 5, without enzyme, fluorescence over time) | increase in deflection (fluorescence signal) of the enzyme reaction mixture ([3]; 1.6 mM substrate, 1.0×10^-12 M enzyme, 100 mM citrate phosphate pH 5 with 0.05% gelatin, ten minute interval, 540 nm excitation, 580 emission)
1 | CCN(C(=O)Oc1ccc2nc3ccc(=O)cc-3oc2c1)c1cc(S(=O)(=O)N(C)C)ccc1O[C@@H]1O[C@H](CO)[C@H](O)[C@H](O)[C@H]1O [Compound 8, 2-[N-ethyl-N-carbo (resorufinyl)]-4-dimeehylamino sulfonylphenyl-β-D-galactopyranoside] | 0.0015 µmol/min | 0.0015 µmol/min | incomplete | – | – | – | – | – | – | – | – | – | – | –
2 | CCN(C(=O)Oc1ccc([N+](=O)[O-])cc1)c1cc(S(=O)(=O)N(C)C)ccc1O[C@@H]1O[C@H](CO)[C@H](O)[C@H](O)[C@H]1O [Compound 6, 2-[N-ethyl N-carbo (p-nitrophenoxy)]-4-dimethylamino sulfonyl phenyl-β-D-galactopyranoside] | – | 0.0065 µmol/min | – | 0.028 µmol/min | 0.0091 µmol/min | 0.028 µmol/min | 0.009 µmol/min | 0.066 µmol/min | 0.039 µmol/min | 0.0094 µmol/min | 0.00075 µmol/min | 0.00006 µmol/min | – | –
3 | CCN(C(=O)Oc1ccc2nc3ccc(=O)cc-3oc2c1)c1cc(S(=O)(=O)N2CCN(C(=O)CCC(=O)O)CC2)ccc1O[C@@H]1O[C@H](CO)[C@H](O)[C@H](O)[C@H]1O [Compound 15] | – | – | – | – | – | – | – | – | – | – | – | – | No increase in the signal | one and one half percent increase in deflection
